The EC50 is the concentration giving half of the maximal effect.

For assay [1], the target named is T1, human calcium receptor (Homo sapiens, UniProt P41180).
T1 construct: expressed in transfected cells; host or cells: HEK293
T1 sequence (P41180 20-1078): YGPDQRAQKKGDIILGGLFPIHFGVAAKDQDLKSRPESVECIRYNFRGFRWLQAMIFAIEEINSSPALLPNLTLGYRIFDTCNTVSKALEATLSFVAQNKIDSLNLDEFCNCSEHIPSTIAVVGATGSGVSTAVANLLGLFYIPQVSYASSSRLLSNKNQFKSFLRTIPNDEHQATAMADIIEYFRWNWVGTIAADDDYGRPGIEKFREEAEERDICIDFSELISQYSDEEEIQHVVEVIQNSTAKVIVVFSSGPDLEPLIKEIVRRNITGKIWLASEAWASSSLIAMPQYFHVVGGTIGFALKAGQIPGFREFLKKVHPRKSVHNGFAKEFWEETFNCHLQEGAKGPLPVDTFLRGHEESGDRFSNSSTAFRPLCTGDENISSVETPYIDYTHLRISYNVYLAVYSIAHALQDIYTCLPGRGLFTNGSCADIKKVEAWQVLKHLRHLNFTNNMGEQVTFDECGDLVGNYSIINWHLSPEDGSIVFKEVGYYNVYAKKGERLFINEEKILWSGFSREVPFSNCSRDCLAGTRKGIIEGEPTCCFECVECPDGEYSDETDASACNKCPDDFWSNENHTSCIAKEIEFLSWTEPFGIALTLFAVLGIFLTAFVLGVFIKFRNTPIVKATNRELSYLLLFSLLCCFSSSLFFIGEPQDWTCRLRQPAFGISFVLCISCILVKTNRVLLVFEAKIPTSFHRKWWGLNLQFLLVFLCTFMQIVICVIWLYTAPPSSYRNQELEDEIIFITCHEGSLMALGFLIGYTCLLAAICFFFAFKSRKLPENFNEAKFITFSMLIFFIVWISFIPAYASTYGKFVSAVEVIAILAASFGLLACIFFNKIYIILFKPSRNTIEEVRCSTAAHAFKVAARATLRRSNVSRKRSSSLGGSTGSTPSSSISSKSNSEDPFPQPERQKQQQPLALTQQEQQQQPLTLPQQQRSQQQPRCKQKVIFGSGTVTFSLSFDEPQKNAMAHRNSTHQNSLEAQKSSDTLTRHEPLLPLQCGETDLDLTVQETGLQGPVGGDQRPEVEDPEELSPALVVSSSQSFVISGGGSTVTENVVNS
Nature of the assay: Activity on calcium receptors: fluo-3 fluorescence in HEK293 cells transfected with human calcium receptor gene. In kind it is cell-based. As to conditions: HEK293 cells transfected with plasmid pHuPCaR4.0 (human calcium receptor gene), loaded with fluo-3; 1 mM CaCl2, 1 mM MgCl2. An outline of the steps:
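HEK293 cells transfected with human calcium receptor plasmid, loaded 1 h at 37 °C with about 5 μM fluo-3/AM. Cells then rinsed into HEPES-buffered HBSS with 1 mM CaCl2 and 1 mM MgCl2. Fluorescence read at 485/540 nm after compound addition.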

The test system of assay [2] is normal male SD rats. As to the kind of experiment: Plasma Ca^2+ level of rats after single oral administration. Format: in vivo. As to conditions: rat, mean of six animals; for Plasma Ca^2+ (mmol/l) 1 hr: 1 hr after single oral dose 30 μmol/kg; for Plasma Ca^2+ (mmol/l) 1 hr / Plasma Ca^2+ (mmol/l) 2 hr / Plasma Ca^2+ (mmol/l) 4 hr / Plasma Ca^2+ (mmol/l) 8 hr / Plasma Ca^2+ (mmol/l) 23 hr (footnote *c, 24 hr column) / Plasma Ca^2+ (mmol/l) 0 hr: vehicle 10% cyclodextrin (** 1% sodium-CMC); for Plasma Ca^2+ (mmol/l) 2 hr: 2 hr after single oral dose 30 μmol/kg; for Plasma Ca^2+ (mmol/l) 4 hr: 4 hr after single oral dose 30 μmol/kg; for Plasma Ca^2+ (mmol/l) 8 hr: 8 hr after single oral dose 30 μmol/kg; for Plasma Ca^2+ (mmol/l) 23 hr (footnote *c, 24 hr column): 23 hr after single oral dose 30 μmol/kg; for Plasma Ca^2+ (mmol/l) 0 hr: 0 hr = before oral administration of 30 μmol/kg; for Plasma Ca^2+ (mmol/l) 28 hr (footnote *d, 24 hr column): 28 hr after single oral dose 30 μmol/kg, vehicle 10% cyclodextrin. The essentials: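 Normal male SD rats (n=6/group) received a single oral dose of 30 μmol/kg in 10% cyclodextrin or, for some compounds, 1% sodium-CMC; vehicle controls received 2.5 ml/kg. Tail blood was drawn pre-dose and at 30 min and 1, 2, 4, 8 and 24 h for plasma Ca^2+ and serum PTH. PTH was compared with vehicle by Steel's test.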

Take `C[C@@H](NCCCCSc1cc(Cl)ccc1Cl)c1cccc2ccccc12` [Compound K-2298, N-{4-[(2,5-dichlorophenyl)thio]butyl}-N-[(1R)-1-(1-naphthyl)ethyl]amine]: the EC50 in assay [1] amounted to 340 nM. In addition, in assay [2], the “Plasma Ca^2+ (mmol/l) 1 hr” value turned out to be 1.348 mmol/L, the “Plasma Ca^2+ (mmol/l) 2 hr” value was 1.265 mmol/L, the “Plasma Ca^2+ (mmol/l) 4 hr” value stood at 1.187 mmol/L and the “Plasma Ca^2+ (mmol/l) 8 hr” value was 1.100 mmol/L.

As to `Cc1ccc(CN(Cc2ccc(C(F)(F)F)cc2)C(=O)CCN[C@H](C)c2cccc3ccccc23)cc1` [Compound K-2299, N1-(4-methylbenzyl)-N1-[4-(trifluoromethyl)benzyl]-3-{[(1R)-1-(1-naphthyl)ethyl]amino}propanamide], the EC50 in assay [1] stood at 150 nM. Besides, in assay [2], the “Plasma Ca^2+ (mmol/l) 1 hr” value came to 1.287 mmol/L, the “Plasma Ca^2+ (mmol/l) 2 hr” value amounted to 1.192 mmol/L, the “Plasma Ca^2+ (mmol/l) 4 hr” value stood at 0.998 mmol/L and the “Plasma Ca^2+ (mmol/l) 8 hr” value is 0.983 mmol/L. In assay [2], the “Plasma Ca^2+ (mmol/l) 23 hr (footnote *c, 24 hr column)” value (from here on “Plasma Ca^2+ (mmol/l) 23 hr”) is reported as 1.382*^c mmol/l.

Consider `Cc1ccc(CN(Cc2ccc(C)cc2)C(=O)CCN[C@H](C)c2cccc3ccccc23)cc1` [Compound K-2300, N1,N1-di(4-methylbenzyl)-3-{[(1R)-1-(1-naphthyl)ethyl]amino}propanamide], for which, in assay [1], the EC50 amounted to 140 nM. In addition, in assay [2], the “Plasma Ca^2+ (mmol/l) 1 hr” value is 1.293 mmol/L, the “Plasma Ca^2+ (mmol/l) 2 hr” value came out at 1.158 mmol/L, the “Plasma Ca^2+ (mmol/l) 4 hr” value was 0.958 mmol/L and the “Plasma Ca^2+ (mmol/l) 8 hr” value was 1.022 mmol/L. Besides, the “Plasma Ca^2+ (mmol/l) 23 hr” value in assay [2] is 1.397*^c mmol/l.

Regarding `C[C@@H](NCCCCCCSc1ccc(OC(F)(F)F)cc1)c1cccc2ccccc12` [Compound K-2301], the EC50 in assay [1] was determined as 800 nM. Besides, in assay [2], the “Plasma Ca^2+ (mmol/l) 0 hr” value worked out at 1.397 mmol/L, the “Plasma Ca^2+ (mmol/l) 1 hr” value was found to be 1.237 mmol/L, the “Plasma Ca^2+ (mmol/l) 2 hr” value came to 1.165 mmol/L and the “Plasma Ca^2+ (mmol/l) 4 hr” value stood at 1.077 mmol/L. For the same compound, in assay [2], the “Plasma Ca^2+ (mmol/l) 8 hr” value is 1.075 mmol/L and the “Plasma Ca^2+ (mmol/l) 23 hr” value is 1.350*^c mmol/l.

Take `Cc1ccc(SCCCCN[C@H](C)c2cccc3ccccc23)c(C)c1` [Compound K-2302, N-{4-[(2,4-dimethylphenyl)thio]butyl}-N-[(1R)-1-(1-naphthyl)ethyl]amine]: the EC50 in assay [1] worked out at 500 nM. In assay [2], the “Plasma Ca^2+ (mmol/l) 1 hr” value is 1.238 mmol/L, the “Plasma Ca^2+ (mmol/l) 2 hr” value came to 1.130 mmol/L, the “Plasma Ca^2+ (mmol/l) 4 hr” value amounted to 0.978 mmol/L and the “Plasma Ca^2+ (mmol/l) 8 hr” value turned out to be 1.010 mmol/L.

For `Cc1ccc(SC(C)CCCN[C@H](C)c2cccc3ccccc23)c(C)c1` (stereo partly shown) [Compound K-2303], the EC50 in assay [1] came out at 350 nM. Further, in assay [2], the “Plasma Ca^2+ (mmol/l) 0 hr” value was found to be 1.415 mmol/L, the “Plasma Ca^2+ (mmol/l) 1 hr” value was determined as 1.255 mmol/L, the “Plasma Ca^2+ (mmol/l) 2 hr” value amounted to 1.165 mmol/L and the “Plasma Ca^2+ (mmol/l) 4 hr” value amounted to 1.020 mmol/L. The “Plasma Ca^2+ (mmol/l) 8 hr” value in assay [2] was 1.032 mmol/L.

Consider `Cc1ccc(SCCCCN[C@H](C)c2cccc3ccccc23)cc1` [Compound K-2304, N-{4-[(4-methylphenyl)thio]butyl}-N-[(1R)-1-(1-naphthyl)ethyl]amine], for which, in assay [1], the EC50 was 98 nM. In addition, in assay [2], the “Plasma Ca^2+ (mmol/l) 1 hr” value came out at 1.262 mmol/L, the “Plasma Ca^2+ (mmol/l) 2 hr” value came out at 1.157 mmol/L, the “Plasma Ca^2+ (mmol/l) 4 hr” value was determined as 1.053 mmol/L and the “Plasma Ca^2+ (mmol/l) 8 hr” value came out at 1.065 mmol/L.

Take `Cc1ccc(SCCCCCN[C@H](C)c2cccc3ccccc23)cc1` [Compound K-2305]: in assay [1], the EC50 is 110 nM. In assay [2], the “Plasma Ca^2+ (mmol/l) 0 hr” value was found to be 1.415 mmol/L, the “Plasma Ca^2+ (mmol/l) 1 hr” value amounted to 1.242 mmol/L, the “Plasma Ca^2+ (mmol/l) 2 hr” value is 1.170 mmol/L and the “Plasma Ca^2+ (mmol/l) 4 hr” value is 1.098 mmol/L. Besides, in assay [2], the “Plasma Ca^2+ (mmol/l) 8 hr” value came to 1.202 mmol/L.

On to `COc1ccc(CN(Cc2ccc(Cl)c(Cl)c2)C(=O)CCN[C@H](C)c2cccc3ccccc23)cc1` [Compound K-2309, N1-(3,4-dichlorobenzyl)-N1-(4-methoxybenzyl)-3-{[(1R)-1-(1-naphthyl)ethyl]amino}propanamide], for which the EC50 in assay [1] stood at 66 nM. Besides, in assay [2], the “Plasma Ca^2+ (mmol/l) 1 hr” value was 1.320 mmol/L, the “Plasma Ca^2+ (mmol/l) 2 hr” value stood at 1.207 mmol/L, the “Plasma Ca^2+ (mmol/l) 4 hr” value was determined as 1.018 mmol/L and the “Plasma Ca^2+ (mmol/l) 8 hr” value worked out at 0.963 mmol/L. Besides, the “Plasma Ca^2+ (mmol/l) 28 hr (footnote *d, 24 hr column)” value in assay [2] was 1.332*^d mmol/l.

Consider `Cc1ccc(CN(Cc2ccc(OC(F)(F)F)cc2)C(=O)CCN[C@H](C)c2cccc3ccccc23)cc1` [Compound K-2310, N1-(4-methylbenzyl)-N1-[4-(trifluoromethoxy)benzyl]-3-{[(1R)-1-(1-naphthyl)ethyl]amino}propanamide], for which the EC50 in assay [1] came out at 59 nM. In addition, in assay [2], the “Plasma Ca^2+ (mmol/l) 1 hr” value came to 1.342 mmol/L, the “Plasma Ca^2+ (mmol/l) 2 hr” value amounted to 1.188 mmol/L, the “Plasma Ca^2+ (mmol/l) 4 hr” value is 1.008 mmol/L and the “Plasma Ca^2+ (mmol/l) 8 hr” value is 0.943 mmol/L. For the same compound, in assay [2], the “Plasma Ca^2+ (mmol/l) 28 hr (footnote *d, 24 hr column)” value is reported as 1.330*^d mmol/l.

Regarding `COc1ccc(CN(Cc2ccc(OC(F)(F)F)cc2)C(=O)CCN[C@H](C)c2cccc3ccccc23)cc1` [Compound K-2311], the EC50 in assay [1] worked out at 53 nM. Further, in assay [2], the “Plasma Ca^2+ (mmol/l) 0 hr” value was 1.447 mmol/L, the “Plasma Ca^2+ (mmol/l) 1 hr” value was found to be 1.375 mmol/L, the “Plasma Ca^2+ (mmol/l) 2 hr” value came out at 1.232 mmol/L and the “Plasma Ca^2+ (mmol/l) 4 hr” value turned out to be 1.075 mmol/L. Moreover, the “Plasma Ca^2+ (mmol/l) 8 hr” value in assay [2] was 1.110 mmol/L.

The record behind these values is patent publication US7816408B2, “Calcium receptor active compounds” (NPS Pharmaceuticals, Inc., priority 2002, dated 2010).
